Reference: US20100092456A1, “METHODS OF TREATMENT” (priority 2006, published 2010)
No end group written: not given here.

Key:
[1] = test system: nuclear PtdIns4P and PtdIns5P in differentiated MEL cells; experiment: Mass assay of nuclear PtdIns4P and PtdIns5P in differentiated MEL cells; type: cell-based, Murine; conditions: NAC 5 mM or BSO 100 μM for 4 hours, H2O2 500 μM for 15 minutes, vs control-treated cells
Procedure: B) Differentiated MEL cells were treated with NAC (5 mM) or BSO (100 μM), each for 4 hours, or H2O2 (500 μM) for 15 minutes prior to the isolation of intact nuclei. A mass assay was used to determine the levels of PtdIns4P and PtdIns5P. The results are expressed as % of control-treated differentiated MEL cells and are calculated from 3 independent experiments.
MEL, HEK 293 and HT1080 cells were maintained in routine culture using 10% FCS in DMEM. When required, differentiated MEL cells were prepared by the addition of 1.5% DMSO to the culture medium for a period of 4 days. MEL cells were transfected using Effectene (Qiagen), HEK 293 cells with calcium phosphate and HT1080 with LT1 (Mirus corporation). The following plasmids were used: pEGFP, pCDNA3 (both from Clontech), pCDNA3-Flag-MKK6+ and pCDNA3-Flag-MKK6-(from Dr. M. Schmidt, The Netherlands Cancer Institute), pSuper (from Dr. R. Agami, The Netherlands Cancer Institute), pCDNA3-EGFP-IpgD/IpgE, pCDNA3-EGFP-PIP kinase typeIIβ, and RNAi for type II β PIP kinase (termed pSuper-IIβRNAi). The targeting sequence for the latter was […]. Irradiation of the cells with 254 nm UV-C light (0-200 J/m) or gamma rays (0-40 Gy, from a Cesium 137 source) was performed using 6-well or 10 cm plastic petri dishes with a depth of medium covering the cells not exceeding 3-4 mm. Thereafter, the cells were returned to normal culture conditions for 30 minutes before subcellular fractionation was started. To determine long terms effects of UV and gamma irradiation the cells were returned to normal culture conditions for up to 48 hours.
MEL cells were washed, twice in ice cold PBS before their fractionation using a detergent-free hypotonic buffer. This method yields a mixed cytosol and membrane fraction and intact nuclei after separation using a sucrose cushion. MEL cell nuclei were fractionated into nucleoplasm and the CEF using modifications of a previously published method. Briefly, intact MEL cell nuclei were resuspended in ice cold hypotonic buffer (3 mM EDTA, 0.2 mM EGTA and 1 mM DTT pH 7.85, with protease inhibitors) followed by forced passage (12 times) through a 25 gauge needle. After centrifugation (1700 g) the supernatant (the nucleoplasm) was saved. The pellet (CEF) was washed twice before resuspending by sonication in 10 mM TrisHCl, 10% sucrose, 10 mM MgCl2 pH 7.4, with protease inhibitors. The protein content of all fractions was determined using the Bradford reagent (BioRad). PtdIns4P and PtdIns5P were measured using in vitro mass assays employing recombinant type I and type II PIP kinases, respectively. The product PtdIns(4,5)P2 was separated by TLC. The amount of radioactivity found in PtdIns(4,5)P2 was proportional to the amount of PtdInsP isomer in the neomycin affinity-purified lipid extract.
However, no studies have determined a role for nuclear phosphoinositides or defined downstream protein targets mediating phosphoinositide-stress activated pathways. To study changes in nuclear phosphoinositides in response to cellular stress, we used Murine erythroleukaemia (MEL) cells as a model system because preparations of nuclei from these cells have been proven to be of high purity. To visualise changes in phosphoinositides, various independent methods were used. The mass level of both PtdIns4P and PtdIns5P were measured using an assay that relies on the differential in vitro specificities of type I and type II PIP kinases. […] Gamma irradiation (10 Gy) led to a small (approximately 20%) decrease in the PtdIns4P level but no detectable change in the level of PtdIns5P in whole nuclei (FIG. 1a). To determine if nuclear PtdInsPs were regulated by oxidative stress we treated differentiated MEL cells with H2O2, BSO (L-buthionine[S,R]-sulphoximine, a glutamyl-cysteine synthetase inhibitor, which increases intracellular reactive oxygen species (ROS)) or NAC. (N-acetyl-cysteine, which increases cellular glutathione levels and cell' capability to deal with ROS). […]

MEL cells = experiment: MEL cell viability and cell cycle profile; type: cell-based, Murine; conditions: compound alone
Procedure: Ethanol fixed cells were incubated with prodium iodide (20 μg/ml) and RNAse (10 μg/ml) before cell cycle analysis by flow cytometry. Proteins were analysed by standard western blotting procedures employing the following antibodies: anti-tubulin and anti-flag (both from Sigma), anti-actin (Chemicon International), anti-histone 4 (Upstate Biotechnology), anti-phospho p54, anti-phospho p46, anti-phospho p38, total p54, total p46 and total p38 (all from Cell Signalling Technology) anti-ING2, anti EGFP (Clontech), anti-type II β PIP kinase, anti-GST and anti-myc (both generated in house).
To investigate the sub-nuclear localisation of UV-induced nuclear PtdInsPs, we fractionated nuclei to generate nucleoplasm (containing nuclear membranes and soluble nuclear material) and the chromatin enriched fraction (CEF) (FIG. 1c inset). […] Thus, the PtdInsP pool present in the CEF is a target for regulation in response to cellular stress.

ING2 = experiment: Western blot of endogenous ING2 associated with the CEF of MEL cells; type: cell-based, Murine; conditions: MEL cells; 200 J/m UV; NAC 5 mM 4 hours, wortmannin 200 nM and 5 μM, curcumin 100 μM
Procedure: FIG. 4. A) Exponentially growing MEL cells were irradiated with either 200 J/m of UV light or 10 Gy of gamma radiation. After 30 minutes the CEF was isolated and the subjected to SDS-PAGE followed by transfer of the separated proteins to a nitrocellulose membrane. Western blotting for endogenous ING2 and histone 4 proteins was performed. Representative western blots are shown. B) Exponentially growing MEL cells were incubated in the absence or presence of N-acetyl cysteine (NAC) (5 mM) for 4 hours prior to a control irradiation or exposed to 200 J/m of UV light before the isolation of the CEF. Differentiated MEL cells were incubated in the absence or presence of H2O2 (500 μM) for 15 minutes prior to the isolation of the CEF. Proteins in the CEF were subjected to SDS-PAGE followed by transfer to a nitrocellulose membrane. Western blotting for endogenous ING2 and histone 4 proteins was performed. Representative western blots are shown. C) MEL cells were preincubated with either vehicle, wortmannin (200 nM and 5 μM) or curcumin (100 μM) were irradiated with 200 J/m of UV light. After 30 minutes the CEF was isolated and proteins were subjected to SDS-PAGE followed by transfer to a nitrocellulose membrane. Western blotting for endogenous ING2 and histone 4 proteins was performed. Representative western blots are shown. D) The CEF from transiently transfected MEL cells with either pSuper or pSuper-IIβRNAi was prepared. Proteins in the CEF were subjected to SDS-PAGE followed by transfer to a nitrocellulose membrane. […] Proteins were analysed by standard western blotting procedures employing the following antibodies: anti-tubulin and anti-flag (both from Sigma), anti-actin (Chemicon International), anti-histone 4 (Upstate Biotechnology), anti-phospho p54, anti-phospho p46, anti-phospho p38, total p54, total p46 and total p38 (all from Cell Signalling Technology) anti-ING2, anti EGFP (Clontech), anti-type II β PIP kinase, anti-GST and anti-myc (both generated in house).

type II β PIP kinase = experiment: Type II PIP kinase activity in immunoprecipitates using PtdIns5P as substrate; type: cell-based
Procedure: FIG. 3. A) MEL cells were either untransfected or transfected to express myc-type II b PIP kinase. After 40 hours the cells some of the cells were irradiated with 200 J/m of UV light before reculturing for varying times indicated in the figure. The cells were collected and endogenous type II PIP kinase was immunoprecipitated from whole cell lysates using an anti-pan type II b PIP kinase antibody or an anti-myc antibody. Type II PIP kinase activity in the immunoprecipitates was determined using PtdIns5P as the substrate. The results are calculated from 3 independent experiments.
To test this hypothesis endogenous type II PIP kinases were immunoprecipitated from control-treated and UV-irradiated MEL cells and their activities were measured using PtdIns5P as a substrate. […] As the antibody used to immunoprecipitate recognises all type II PIP kinase isoforms, we transfected MEL cells with myc-tagged type II β PIP kinase and measured its activity in immunoprecipitates in response to UV irradiation. […] UV irradiation is known to regulate both stress-activated protein kinases (SAPKs) and mitogen-activated protein kinases (MAPKs) and therefore we determined if any of these UV induced pathways impinged on type II β PIP kinase activity. […] Therefore we assessed whether activation of the p38 pathway alone could mediate type II β PIP kinase inhibition. […]

[2] = test system: PtdIns(4,5)P2 in HeLa cells; experiment: PtdIns(4,5)P2 levels visualised with GFP-PH domain of PLCdelta1 probe in HeLa cells; type: cell-based; conditions: transient, levels quickly recover
Source text: Changes in intracellular PtdIns(4,5)P2 levels following stimulation with neurokinin A were visualised in real time using a fusion protein of GFP and the PH domain of PLCdelta1 as a probe. GFP PLC delta 1 is a highly specific in vivo probe for PIP2 in cells.
HeLa cells were transiently transfected with an expression plasmid encoding a fusion protein of GFP and the PH domain of PLCdelta1.
HeLa cells were transiently transfected with an expression plasmid encoding a fusion protein of GFP and the pleckstrin homology domain of PLCdelta1. GFP PLC delta1 is a highly specific in vivo probe for PtdIns(4,5)P2 in cells. Results are in FIG. 10.

[3] = target: T1, PtdIns(4,5)P—F PH domain complex (Homo sapiens, UniProt P51178); experiment: Displacement of PtdIns(4,5)P—F from the PH domain complex by unlabelled lipids; type: binding
T1 construct: GST-tagged PLCδ1 Pleckstrin homology (PH) domain protein expressed and purified in-house in E. Coli; made in house; host or cells: E. coli
T1 sequence (P51178 21-130 limits assumed): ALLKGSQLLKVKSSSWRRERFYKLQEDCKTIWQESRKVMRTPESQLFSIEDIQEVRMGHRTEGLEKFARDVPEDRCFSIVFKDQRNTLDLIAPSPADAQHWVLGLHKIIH
Procedure: FIG. 7. A 10 nM-1 uM PtdIns(4,5)P—F PH domain complex was incubated with increasing concentrations of unlabelled PtdIns(4,5) P2 (circles) and unlabelled PtdIns5P (squares). The unlabelled product disrupts the complex fully at 1 mM, substrate has no effect at 16 mM, (duplicates).
FIG. 20: A PtdIns(4,5)P—F PH domain complex (10 nM/500 nM) was incubated with increasing concentrations of unlabelled PtdIns(4,5) P2 (triangles) and unlabelled PtdIns4P (diamonds). The unlabelled product disrupts the complex fully at 750 nM, substrate has no effect at 5 μM.

**Q.** With `CCCCS(=N)(=O)CCC(N)C(=O)O` [BSO, L-buthionine[S,R]-sulphoximine] as the molecule, how does the “level of nuclear PtdIns4P” value [1] read?
**A.** increased

**Q.** What about the “level of nuclear PtdIns5P” value [1] of the same molecule?
**A.** increased

**Q.** With `COC[C@H]1OC(=O)c2coc3c2[C@@]1(C)C1=C(C3=O)[C@@H]2CCC(=O)[C@@]2(C)C[C@H]1OC(C)=O` [wortmannin] as the molecule, how does the “effect on the cell cycle profile” value (MEL cells; MEL cells) read?
**A.** no effect

**Q.** What about the “effect on MEL cell viability” value (MEL cells) of the same molecule?
**A.** no effect

**Q.** Which “UV-induced translocation of endogenous ING2 to the CEF” value (ING2) does the source give for `CC(=O)N[C@@H](CS)C(=O)O` [NAC, N-acetyl-cysteine] here?
**A.** did not block

**Q.** And the “level of nuclear PtdIns4P” value [1]?
**A.** lowered

**Q.** What about the “level of nuclear PtdIns5P” value [1] of the same molecule?
**A.** lowered

**Q.** `COc1ccc(C[C@H]2NC[C@H](O)[C@H]2OC(C)=O)cc1` [anisomycin] was tested. Which “inhibition of type II β PIP kinase activity” value (type II β PIP kinase; treatment of cells) did it give?
**A.** approximately 50%

**Q.** Which “PtdIns(4,5)P2 levels (GFP-PH probe at plasma membrane) after growth factor stimulation” value [2] does the source give for “neurokinin A (HKTDSFVGLM; ends and bridges not checked; UniProt P20366 98-107, looked up) [growth factor used to stimulate PtdIns(4,5)P2 depletion]” here?
**A.** depletion

**Q.** PtdIns5P was tested. Which “effect on the complex” value ([3]; 10 nM-1 uM PtdIns(4,5)P—F PH domain complex (FIG. 7)) did it give?
**A.** no effect

**Q.** Which results are given for “phosphatidylinositol 4,5-bisphosphate [PtdIns(4,5) P2]”?
**A.** concentration at which unlabelled lipid disrupts the complex fully ([3]; 10 nM-1 uM PtdIns(4,5)P—F PH domain complex, duplicates (FIG. 7)): 1 mM; concentration at which unlabelled lipid disrupts the complex fully ([3]; PtdIns(4,5)P—F PH domain complex (10 nM/500 nM) (FIG. 20)): 0.00075 mM

**Q.** For “D-myo-Phosphatidylinositol 4-phosphate [PtdIns4P]”, which “effect on the complex” value ([3]; at 5 μM, PtdIns(4,5)P—F PH domain complex (10 nM/500 nM) (FIG. 20)) is on record?
**A.** no effect

**Q.** With `C[S+]([O-])c1ccc(-c2nc(-c3ccncc3)c(-c3ccc(F)cc3)[nH]2)cc1` (centres unmarked) [SB 203580] as the molecule, how does the “UV light-induced inhibition of type II β PIP kinase activity” value (type II β PIP kinase; pre-treatment of MEL cells) read?
**A.** blocked
